According to patent US4970215A, “Substituted 4-(quinolin-2-yl-methoxy)phenyl-acetic acid derivatives and anti-allergic use thereof” (Bayer Aktiengesellschaft, priority 1988, dated 1990):

test system: lipoxygenase; assay: Lipoxygenase inhibition: release of leucotriene B4 (LTB4) from polymorphonuclear rat leucocytes (PMN) after Ca-ionophor, reverse phase HPLC; assay type: cell-based; conditions: RP-HPLC, read-out: LO inhibition IC50
Method: The release of leucotriene B4 (LTB4) from polymorphonuclear rat leucocytes (PMN) following addition of substances and a Ca-ionophor was determined by means of reverse phase HPLC by the method of Borgeat, P. et al., Proc. Nat. Acad. Sci. (USA) 76, 2148-2152 (1979) as a measure of lipoxygenase inhibition. The values achieved in this test with some compounds according to the invention are listed by way of example in Table 1: […]

IC50 [nM] | Compound
140 | O=C(O)C(CC1CC1)c1ccc(OCc2ccc3ccccc3n2)cc1 (stereo not drawn) [Example 7, 2-[4-(Quinolin-2-yl-methoxy)phenyl]-3-cyclopropylpropionic acid]
10 | O=C(O)C(CC1CCCCC1)c1ccc(OCc2ccc3ccccc3n2)cc1 (stereo not drawn) [Example 8, 2-[4-(Quinolin-2-yl-methoxy)phenyl]-3-cyclohexylpropionic acid]
40 | O=C(O)C(c1ccc(OCc2ccc3ccccc3n2)cc1)C1CCCC1 (stereo not drawn) [Example 9, 2-[4-(Quinolin-2-yl-methoxy)phenyl]-2-cyclopentylacetic acid]
